Experimental data: ChEMBL document CHEMBL5244250, “Natural sesquiterpenoid oligomers: A chemical perspective” (Eur J Med Chem, 2020)
Converted amounts (≈) assume the structure as drawn. Each block holds one compound with its values, some of them ahead of it.

What was measured:
PC-12 = assay: Neuroprotective activity against glutamate-induced neurotoxicity in rat PC-12 cells; format: functional, cell-based
A549 = assay: Cytotoxicity against human A549 cells incubated for 72 hrs by CCK8 assay; format: functional, cell-based; conditions: A549, 72 h
HL-60 [1] = assay: Cytotoxicity against human HL-60 cells incubated for 72 hrs by CCK8 assay; format: functional, cell-based; conditions: HL-60, 72 h
HT-29 = assay: Cytotoxicity against human HT-29 cells incubated for 72 hrs by CCK8 assay; format: functional, cell-based; conditions: HT-29, 72 h
Bel-7402 = assay: Cytotoxicity against human Bel-7402 cells incubated for 72 hrs by CCK8 assay; format: functional, cell-based; conditions: Bel-7402, 72 h
Plasmodium falciparum = assay: Antiplasmodial activity against Plasmodium falciparum; format: functional, organism-based
CCRF-CEM = assay: Cytotoxicity against human CCRF-CEM cells; format: functional, cell-based
RAW264.7 [2] = assay: Anti-inflammatory activity in LPS induced mouse RAW264.7 cells assessed as inhibition of NO production by MTT method; format: functional, cell-based
HL-60 [3] = assay: Cytotoxicity against human HL-60 cells; format: functional, cell-based
KB = assay: Cytotoxicity against human KB cells assessed as reduction in cell viability; format: functional, cell-based
RAW264.7 [4] = assay: Anti-inflammatory activity in LPS induced mouse RAW264.7 cells assessed as inhibition of NO production pretreated for 1 hr followed by LPS stimulation and measured after 18 hrs by MTT assay; format: functional; conditions: time 19 hrs, read-out: ED50 (the source's name)
HepG2 = assay: Cytotoxicity against human HepG2 cells incubated for 48 hrs by MTT based colorimetry assay; format: functional, cell-based; conditions: HepG2, 48 h
CCRF S-180 = assay: Cytotoxicity against mouse CCRF S-180 cells incubated for 48 hrs by MTT based colorimetry assay; format: functional, cell-based; conditions: CCRF S-180, 48 h
MGC-803 = assay: Cytotoxicity against human MGC-803 cells incubated for 48 hrs by MTT based colorimetry assay; format: functional, cell-based; conditions: MGC-803, 48 h
RAW264.7 [5] = assay: Anti-inflammatory activity in LPS induced mouse RAW264.7 cells assessed as inhibition of NO production measured after 24 hrs by CCK-8 method; format: functional, cell-based; conditions: RAW264.7, 24 h

SMILES: C=C1CC[C@H]2C(=C)CC[C@@H]3[C@H](OC(=O)[C@]3(CC(C)=O)C[C@@H]3CC[C@H]4C(=C)CC[C@H]5C(=C)C(=O)O[C@@H]5[C@@H]34)[C@@H]12
EC50 (PC-12): 2110 nM

SMILES: C=C1CC[C@H]2C(=C)C(=O)O[C@@H]2[C@@H]2[C@H]1[C@@H](C[C@@H]1C(=O)C3C4[C@H]1[C@H]1OC(=O)C(=C)[C@@H]1CC[C@]4(O)CC[C@]31C(=O)C[C@H]3C(=C)CC[C@H]4C(=C)C(=O)O[C@@H]4[C@H]31)C(=O)[C@@]2(O)CC[C@@H]1C(=O)C[C@H]2C(=C)CC[C@H]3C(=C)C(=O)O[C@@H]3[C@@H]12 (stereo not given in full)
IC50 (A549): 2000 nM
IC50 (HL-60 [1]): 2000 nM
IC50 (HT-29): 2000 nM
IC50 (Bel-7402): 2000 nM

IC50 (Plasmodium falciparum): 2000 nM
SMILES: C/C=C(\C)C(=O)O[C@@H]1CC([C@H](O)[C@]2(C)C=C3OC(=O)C4=C3[C@H]2[C@H]2OC(=O)[C@H](C)[C@@H]2[C@H](OC(=O)/C(C)=C/C)C4)=C2C(=O)C=C(C)[C@@H]2[C@H]2OC(=O)[C@H](C)[C@@H]21

SMILES: C=C1C(=O)O[C@H]2C[C@H](C)[C@@]34C[C@@H](C[C@@]35C(=O)O[C@H]3C=C(C)[C@H]6CC[C@@](C)(O)[C@@H]6C[C@@H]35)C(C)=C4C[C@H]12
IC50 (CCRF-CEM): 2030 nM

SMILES: C=C1CC[C@H]2C(=C)CC[C@@H]3[C@H](OC(=O)[C@H]3C[C@@]3(CC(C)=O)C(=O)O[C@@H]4C/C(C)=C\CC/C=C(/C)C[C@H]43)[C@@H]12
IC50 (RAW264.7 [2]): 4890 nM

SMILES: C=C1C(=O)O[C@H]2C[C@H](C)C3=C(C[C@H]12)[C@@]1(C)C[C@H]3C[C@@]12C(=O)O[C@@H]1C[C@@]3(C)[C@@H](O)C[C@@H](O)C(=C)[C@@H]3C[C@@H]12
IC50 (CCRF-CEM): 140 nM

SMILES: COC(=O)/C(C)=C1\C(=O)[C@H](O)[C@@]2(C)[C@@H]3C[C@@H]3C3=C[C@@]4(C)[C@@]5(C)[C@@H]6C[C@@H]6[C@@]6(O)COC(=O)/C(C)=C/COC(=O)C(O)CC(=O)OCC7=C(C[C@@H]65)[C@@]4(OC7=O)[C@@H]1[C@]32OO (stereo not given in full)
IC50 (HL-60 [3]): 30 nM

SMILES: C=C1C(=O)O[C@H]2C[C@H](C)C3=C(C[C@H]12)[C@]1(C)C[C@H]3C[C@@]12C(=O)O[C@@H]1C[C@H](C)C(CCC(C)=O)=CC[C@@H]12
IC50 (HL-60 [3]): 7500 nM

SMILES: C=C1CCC[C@]2(C)CC[C@@H](C(C)C)[C@H](NC(=O)[C@H]3C[C@H](O)C[C@@H](C(=O)N[C@H]4[C@H](C(C)C)CC[C@@]5(C)CCCC(=C)[C@]45C)N3CCC(=O)OC)[C@@H]12
IC50 (KB): 10.6 µg/mL (≈ 15.2 µM)

SMILES: C=C1C(=O)O[C@H]2C[C@H](C)C3=C(C[C@H]12)[C@]1(C)C[C@@H]3C[C@@]12C(=O)O[C@@H]1C[C@@]3(C)[C@@H](O)C[C@@H](O)C(=C)[C@@H]3C[C@@H]12
IC50 (CCRF-CEM): 140 nM

SMILES: C=C1CC[C@H]2C(=C)C(=O)O[C@@H]2[C@@H]2[C@H]1[C@@H](C[C@@H]1C(=O)C3C4[C@H]1[C@H]1OC(=O)C(=C)[C@@H]1CC[C@@]4(O)CC[C@]31C(=O)C[C@H]3C(=C)CC[C@H]4C(=C)C(=O)O[C@@H]4[C@H]31)C(=O)[C@@]2(O)CC[C@@H]1C(=O)C[C@H]2C(=C)CC[C@H]3C(=C)C(=O)O[C@@H]3[C@@H]12 (stereo not given in full)
IC50 (A549): 2000 nM
IC50 (HL-60 [1]): 2000 nM
IC50 (HT-29): 2000 nM
IC50 (Bel-7402): 2000 nM

SMILES: C=C1C(=O)O[C@H]2C[C@H](C)C3=C(C[C@H]12)[C@@]1(C)C[C@@H]3C[C@@]12C(=O)O[C@H]1C=C(C)[C@H]3CC[C@@](C)(O)[C@@H]3C[C@@H]12
IC50 (CCRF-CEM): 2030 nM

SMILES: C[C@@H]1CC(=O)c2c3c(nc4c2[C@@]1(C)[C@H]1[C@@H](C4=O)C1(C)C)C[C@]1(C)C(=CCC[C@H]1C)C3=O
EC50 (RAW264.7 [4]): 5730 nM

SMILES: CC(=O)C1=C(Oc2oc3c(c2C)C[C@@]2(C)[C@H](CCC[C@@H]2C)[C@@H]3O)C[C@H]2CCC[C@H](C)[C@@]2(C)C1
IC50 (HepG2): 11900 nM
IC50 (CCRF S-180): 11900 nM
IC50 (MGC-803): 11900 nM

SMILES: C=C1C(=O)O[C@H]2C[C@@H](C)C3=C(C[C@H]12)[C@@]1(C)C[C@@H]3C[C@@]12C(=O)O[C@@H]1C[C@@]3(C)[C@@H](O)C[C@@H](O)C(=C)[C@@H]3C[C@@H]12
IC50 (CCRF-CEM): 140 nM

SMILES: C=C1CC[C@H]2C(=C)CC[C@@H]3[C@H](OC(=O)[C@H]3C[C@@]3(CC(C)=O)C(=O)O[C@@H]4[C@H]5C(C)=CCCC5(C)CC[C@H]43)[C@@H]12 (stereo not given in full)
IC50 (RAW264.7 [2]): 7240 nM

SMILES: C=C1C(=O)O[C@H]2[C@@H]1CCC1=C(C)[C@H]3CC1(C[C@@]31C(=O)O[C@H]3C[C@H](C)[C@@]45C[C@@]6(C(=O)O[C@@H]7C[C@H](C)C(CCC(C)=O)=CC[C@@H]76)[C@@H](C(C)=C4C[C@@H]31)C5OC(C)=O)[C@H]2C (stereo not given in full)
IC50 (RAW264.7 [5]): 1900 nM
